Laboratory results from patent US10428087B2, “Pyrimidinones as PI3K inhibitors” (Incyte Corporation, priority 2009, dated 2019).
Counter-ions that a name gives are not always drawn.

The molecules below were run on Pfeiffer cell line (diffuse large B cell lymphoma) (assay: Pfeiffer cell proliferation assay (Example B2)). Details: Homo sapiens, Pfeiffer, Pfeiffer cells, [3H]-thymidine.
Assay type: cell-based
Method: Pfeiffer cell line (diffuse large B cell lymphoma) was purchased from ATCC (Manassas, Va.) and maintained in the culture medium recommended (RPMI and 10% FBS). To measure the anti-proliferation activity of the PI3Kδ submittals, the Pfeiffer cells were plated with the culture medium (2×10^3 cells/well/per 200 μl) into 96-well ultra-low binding plates (Corning, Corning, N.Y.), in the presence or absence of a concentration range of test compounds. After 3-4 days, [^3H]-thymidine (1 μCi/well) (PerkinElmer, Boston, Mass.) in PBS was then added to the cell culture for an additional 12 hrs before the incorporated radioactivity was separated by filtration with water through GF/B filters (Packard Bioscience, Meridenj, Conn.) and measured by liquid scintillation counting with a TopCount (Packard Bioscience). See Table 3 for data related to compounds of the invention.
An IC50 of 50 to 100 nM was found for `Cc1csc2nc(C(C)Nc3nc(N)nc4[nH]cnc34)c(-c3cncc(F)c3)c(=O)n12` (centres unmarked) [Example 38, 7-{1-[(2-amino-9H-purin-6-yl)amino]ethyl}-6-(5-fluoropyridin-3-yl)-3-methyl-5H-[1,3]thiazolo[3,2-a]pyrimidin-5-one trifluoroacetic acid salt] in this work.
An IC50 of 100 to 500 nM was found for `CC(Nc1nc(N)nc2[nH]cnc12)c1nc2ccccn2c(=O)c1-c1cc(F)cc(F)c1` (centres unmarked) [Example 80, 2-{1-[(2-Amino-9H-purin-6-yl)amino]ethyl}-3-(3,5-difluorophenyl)-4H-pyrido[1,2-a]pyrimidin-4-one trifluoroacetic acid salt] in this work.
An IC50 of 50 to 100 nM was found for `Cc1csc2nc(C(C)Nc3ncnc4[nH]cnc34)c(-c3cscn3)c(=O)n12` (centres unmarked) [Example 21, 3-methyl-7-[1-(9H-purin-6-ylamino)ethyl]-6-(1,3-thiazol-4-yl)-5H-[1,3]thiazolo[3,2-a]pyrimidin-5-one trifluoroacetic acid salt] in this work.
An IC50 of 100 to 500 nM was found for `Cc1cccc2nc(C(C)Nc3ncnc4[nH]cnc34)c(-c3cccc(F)c3F)c(=O)n12` (centres unmarked) [Example 66, 3-(2,3-Difluorophenyl)-6-methyl-2-[1-(9H-purin-6-ylamino)ethyl]-4H-pyrido[1,2-a]pyrimidin-4-one trifluoroacetic acid salt] in this work.
An IC50 of 100 to 500 nM was found for `Cc1cccc2nc(C(C)Nc3nc(N)nc4[nH]cnc34)c(-c3cccc(C#N)c3)c(=O)n12` (centres unmarked) [Example 84, 3-(2-{1-[(2-Amino-9H-purin-6-yl)amino]ethyl}-6-methyl-4-oxo-4H-pyrido[1,2-a]pyrimidin-3-yl)benzonitrile trifluoroacetic acid salt] in this work.
An IC50 of 100 to 500 nM was found for `Cc1csc2nc(C(C)Nc3ncnc4[nH]cnc34)c(-c3cc(F)cc(F)c3)c(=O)n12` (centres unmarked) [Example 12, 6-(3,5-difluorophenyl)-3-methyl-7-[1-(9H-purin-6-ylamino)ethyl]-5H-[1,3]thiazolo[3,2-a]pyrimidin-5-one] in this work.
An IC50 of 100 to 500 nM was found for `CCc1cccc2nc(C(C)Nc3ncnc4[nH]cnc34)c(-c3cc(F)cc(F)c3)c(=O)n12` (centres unmarked) [Example 76, 3-(3,5-Difluorophenyl)-6-ethyl-2-[1-(9H-purin-6-ylamino)ethyl]-4H-pyrido[1,2-a]pyrimidin-4-one trifluoroacetic acid salt] in this work.
An IC50 of less than 50 nM was found for `Cc1csc2nc(C(C)Nc3nc(N)nc4[nH]cnc34)c(-c3cccc(Cl)c3)c(=O)n12` (centres unmarked) [Example 32, 7-{1-[(2-amino-9H-purin-6-yl)amino]ethyl}-6-(3-chlorophenyl)-3-methyl-5H-[1,3]thiazolo[3,2-a]pyrimidin-5-one trifluoroacetic acid salt] in this work.
An IC50 of 50 to 100 nM was found for `Cc1cccc2nc(C(C)Nc3ncnc4[nH]cnc34)c(-c3ccccc3Cl)c(=O)n12` (centres unmarked) [Example 57, 3-(2-Chlorophenyl)-6-methyl-2-[1-(9H-purin-6-ylamino)ethyl]-4H-pyrido[1,2-a]pyrimidin-4-one trifluoroacetic acid salt] in this work.
An IC50 of 50 to 100 nM was found for `CC(Nc1ncnc2[nH]cnc12)c1nc2scc(C(F)(F)F)n2c(=O)c1-c1cccc(F)c1` (centres unmarked) [Example 48, 6-(3-Fluorophenyl)-7-[1-(9H-purin-6-ylamino)ethyl]-3-(trifluoromethyl)-5H-[1,3]thiazolo[3,2-a]pyrimidin-5-one] in this work.
An IC50 of 50 to 100 nM was found for `Cc1cccc2nc(C(C)Nc3ncnc4[nH]cnc34)c(-c3cccc(Cl)c3)c(=O)n12` (centres unmarked) [Example 53, 3-(3-Chlorophenyl)-6-methyl-2-[1-(9H-purin-6-ylamino)ethyl]-4H-pyrido[1,2-a]pyrimidin-4-one trifluoroacetic acid salt] in this work.
An IC50 of 50 to 100 nM was found for `Cc1cccc2nc(C(C)Nc3ncnc4[nH]cnc34)c(-c3ccccc3)c(=O)n12` (centres unmarked) [Example 49, 6-Methyl-3-phenyl-2-[1-(9H-purin-6-ylamino)ethyl]-4H-pyrido[1,2-a]pyrimidin-4-one trifluoroacetic acid salt] in this work.
An IC50 of 50 to 100 nM was found for `Cc1ccc(-c2c(C(C)Nc3ncnc4[nH]cnc34)nc3cccc(C)n3c2=O)cc1` (centres unmarked) [Example 64, 6-Methyl-3-(4-methylphenyl)-2-[1-(9H-purin-6-ylamino)ethyl]-4H-pyrido[1,2-a]pyrimidin-4-one trifluoroacetic acid salt] in this work.
An IC50 of 100 to 500 nM was found for `CC(Nc1nc(N)nc2[nH]cnc12)c1nc2sccn2c(=O)c1-c1cc(F)cc(F)c1` (centres unmarked) [Example 24, 7-{1-[(2-amino-9H-purin-6-yl)amino]ethyl}-6-(3,5-difluorophenyl)-5H-[1,3]thiazolo[3,2-a]pyrimidin-5-one] in this work.
An IC50 of less than 50 nM was found for `CCc1cccc2nc(C(C)Nc3nc(N)nc4[nH]cnc34)c(-c3cc(F)cc(F)c3)c(=O)n12` (centres unmarked) [Example 77, 2-{1-[(2-Amino-9H-purin-6-yl)amino]ethyl}-3-(3,5-difluorophenyl)-6-ethyl-4H-pyrido[1,2-a]pyrimidin-4-one trifluoroacetic acid salt] in this work.
An IC50 of 50 to 100 nM was found for `Cc1csc2nc(C(C)Nc3ncnc4[nH]cnc34)c(-c3cccc(Cl)c3)c(=O)n12` (centres unmarked) [Example 36, 6-(3-chlorophenyl)-3-methyl-7-[1-(9H-purin-6-ylamino)ethyl]-5H-[1,3]thiazolo[3,2-a]pyrimidin-5-one trifluoroacetic acid salt] in this work.
An IC50 of 50 to 100 nM was found for `Cc1csc2nc(C(C)Nc3ncnc4[nH]cnc34)c(-c3cccc(F)c3F)c(=O)n12` (centres unmarked) [Example 41, 6-(2,3-difluorophenyl)-3-methyl-7-[1-(9H-purin-6-ylamino)ethyl]-5H-[1,3]thiazolo[3,2-a]pyrimidin-5-one trifluoroacetic acid salt] in this work.
An IC50 of 50 to 100 nM was found for `Cc1cccc2nc(C(C)Nc3nc(N)nc4[nH]cnc34)c(-c3ccccc3F)c(=O)n12` (centres unmarked) [Example 60, 2-{1-[(2-Amino-9H-purin-6-yl)amino]ethyl}-3-(2-fluorophenyl)-6-methyl-4H-pyrido[1,2-a]pyrimidin-4-one trifluoroacetic acid salt] in this work.
An IC50 of 50 to 100 nM was found for `Cc1csc2nc(C(C)Nc3nc(F)nc4[nH]cnc34)c(-c3cc(F)cc(F)c3)c(=O)n12` (centres unmarked) [Example 18, 6-(3,5-difluorophenyl)-7-{1-[(2-fluoro-9H-purin-6-yl)amino]ethyl}-3-methyl-5H-[1,3]thiazolo[3,2-a]pyrimidin-5-one] in this work.
An IC50 of 100 to 500 nM was found for `CC(Nc1nc(N)nc2[nH]cnc12)c1nc2sccn2c(=O)c1-c1ccccc1` (centres unmarked) [Example 27, 7-{1-[(2-amino-9H-purin-6-yl)amino]ethyl}-6-phenyl-5H-[1,3]thiazolo[3,2-a]pyrimidin-5-one] in this work.
An IC50 of 100 to 500 nM was found for `Cc1cccc2nc(C(C)Nc3ncnc4[nH]cnc34)c(-c3cccc(C#N)c3)c(=O)n12` (centres unmarked) [Example 83, 3-{6-Methyl-4-oxo-2-[1-(9H-purin-6-ylamino)ethyl]-4H-pyrido[1,2-a]pyrimidin-3-yl}benzonitrile trifluoroacetic acid salt] in this work.
An IC50 of 100 to 500 nM was found for `Cc1csc2nc(C(C)Nc3ncnc4[nH]cnc34)c(-c3cncc(F)c3)c(=O)n12` (centres unmarked) [Example 42, 6-(5-fluoropyridin-3-yl)-3-methyl-7-[1-(9H-purin-6-ylamino)ethyl]-5H-[1,3]thiazolo[3,2-a]pyrimidin-5-one trifluoroacetic acid salt] in this work.
An IC50 of 100 to 500 nM was found for `Cc1cccc(-c2c(C(C)Nc3ncnc4[nH]cnc34)nc3cccc(C)n3c2=O)c1` (centres unmarked) [Example 51, 6-Methyl-3-(3-methylphenyl)-2-[1-(9H-purin-6-ylamino)ethyl]-4H-pyrido[1,2-a]pyrimidin-4-one trifluoroacetic acid salt] in this work.
